Holding throughout (format): cell-based
The subject of assay [1] is osteoclast-like cells. In words: Pit formation assay (dissolution of osteoclast-like cells). The settings on record: calcium phosphate coated plates, 10 ng/ml RANKL for five days, different concentrations, FIG. 5. The procedure: In order to confirm the influence of KMUP-1 to the bone dissolution of differentiated osteoclast-like cells, cells are cultured in the plates which are coated calcium phosphate of bone-like matrix in the bottom and are given 10 ng/ml RANKL for five days and different concentration of KMUP-1. According to the result, compared with the control group, in the group which is given 10 ng/ml RANKL alone for 5 days, the osteoclast-like cells have obviously dissolution activity, so the covers at the plate bottom present many holes. […] Subsequently, 100 μl medium with 1,000 cells were added into each well, and the total volume was 300 μl/well. The slides were incubated for 5 days, and the medium and the drugs were renewed every 2 days. After 5 days, the medium was removed, and the cells were washed by ddH2O 3 times. Subsequently, the cells were covered by Bleach solution for staining 5 minutes and then were washed by ddH2O for 5 times. After drying, the cells were took a photo by an optical microscopy (40× and 200×), and Autopano Pro V1.4.2, Kolor, Paris, was used to proceed the pictures taken in 40×.

Assay [2] has as its system TRAF6 mRNA in RAW264.7 cells. The experiment in a line: RT-PCR, RANKL-induced mRNA expression of TRAF6. The settings on record: for RANKL-induced mRNA expression level of TRAF6: RAW264.7 cells, 24 hours, CTL 100%, mean ± SEM. From the text:
The culture medium was discarded. […] [table] f) Running • A.

Assay [3] concerns Akt phosphorylation in RAW264.7 cells. In words: Western blot, phosphorylation of Akt induced by RANKL. The settings on record: 10 ng/ml RANKL for 30 minutes, dose dependent, FIG. 17. The procedure:
RANKL can activate PI3K/Akt pathway to maintain the existence and the proliferation of osteoclast-like cells and prevent the apoptosis. The Akt phosphorylation level which is induced by RANKL is examined at different time points. The induced Akt phosphorylation is most apparent when it is induced by 10 ng/ml RANKL for 30 minutes. Therefore, 30 minutes are used to be the time point for inducing Akt phosphoryaltion. […] The proteins were collected by scraping and were centrifuged (13,000 rpm, 4° C., 30 minutes). The supernatant was stored in an eppendorf in −80° C. • c) Concentrations of the proteins were examined by Bio-Red DC Protein Assay. After knowing the concentrations, the proteins were diluted to specific concentrations by adding ddH2O. One forth volume of the diluted proteins of sample buffer was added into the diluted proteins and was put in boiled water for 5 min and then was chilled on ice for 5 minutes. After short time centrifugation, the diluted proteins could be injected into wells of a gel. The gel was run at 100 V for 10 minutes until the proteins were driven to the intersection between a loading gel and a running gel. Then, the voltage was swopped to 200 V for 40 minutes. • d) A PVDF membrane was immersed in Methanol for 2 minutes. After two washes in ddH2O, the membrane was immersed in transfer buffer for 15 minutes. […]
In general terms: In western blotting, separated proteins are transferred to a membrane and probed.

The test system of assay [4] is TNF-α secretion by RAW264.7 cells. The experiment in a line: ELISA, RANKL-induced secretion of TNF-α. The settings on record: RAW264.7, ELISA, FIG. 6. The method, then: Under RANKL stimulation, mononuclear RAW264.7 cells can secrete pro-inflammatory cytokines such as TNF-α, IL-1, IL-6, etc. ELISA is used to measure that KMUP-1 influences RANKL to induce the secretion of pro-inflammatory cytokines. […] 10^5 cells were plated per well in 24-well plates. […] After 24 hours reaction, the reaction fluid was centrifuged (13,000 rpm, 4° C., 20 minutes), and then the supernatant was tasted by ELISA kit (R&D system and eBioscience™) to detect the amount of TNF-α, IL-1β, IL-6, and IL-10. The experimental process is followed with the instructions of the kit.
A general note: ELISA stands for enzyme-linked immunosorbent assay.

For the compound `Cn1c(=O)c2c(ncn2CCN2CCN(c3ccccc3Cl)CC2)n(C)c1=O` [KMUP-1, 7-[2-[4-(2-Chlorophenyl)piperazin-1-yl]ethyl] theophylline], in assay [1], the “dissolution of osteoclast-like cells (dissolution area)” value was “can inhibit the dissolution of osetocalst-like cells”. In addition, the “effect on mRNA expression of TRAF6 induced by RANKL (in words)” value in assay [2] (10 ng/ml RANKL, summary of Table 1) is “not obviously inhibits”. In addition, the “RANKL-induced mRNA expression level of TRAF6” value amounted to 100.2 ± 4.7% in assay [2] (RANKL 10 ng/ml + KMUP-1 1 μM); 123.8 ± 2.3% in assay [2] (RANKL 10 ng/ml + KMUP-1 2.5 μM); 125.9 ± 2.9% ^ in assay [2] (RANKL 10 ng/ml + KMUP-1 5 μM); 128.4 ± 6.5% ^ in assay [2] (RANKL 10 ng/ml + KMUP-1 7.5 μM); 127.2 ± 1.3% ^ in assay [2] (RANKL 10 ng/ml + KMUP-1 10 μM). Moreover, the “phosphorylation of Akt induced by RANKL” value in assay [3] was “can efficiently inhibit phosphorylation of Akt induced by RANKL”. For the same compound, in assay [4], the “RANKL-induced secretion of TNF-α” value is on record as “presents a dose dependent inhibition phenomenon”.

For the origin of these results see patent US8507506B2, “Theophylline derivative inhibits osteoporosis” (Kaohsiung Medical University, priority 2011, dated 2013).
